Test results from patent US20120220581A1, “IMIDAZO[1,2-b]PYRIDAZINE DERIVATIVES AND THEIR USE AS PDE10 INHIBITORS” (Janssen-Cilag, S.A., priority 2009, published 2012).
Like-named read-outs stand apart in the source and are kept apart here.

What was measured:
PDE1B1 = PDE1B1 (Homo sapiens, UniProt Q01064); experiment: In vitro PDE selectivity assay (SPA), PDE1B1; type: biochemical; settings: hPDE1B1; read-out: PDE 1B1 (expressed as pIC50) (converted)
[1] = test system: female hooded-Lister rats; experiment: Object recognition test (NOR) after sub-chronic PCP; type: in vivo, rat; settings: for LMA (no. of lines crossed): mean
Procedure: 60 female hooded-Lister rats (Charles River, UK) were used as subjects for these studies and weighed 248 g±20 g. Rats were allowed at least a 7-day acclimatization period to the animal unit prior to commencement of experimentation. Rats were housed in groups of 5 under standard laboratory conditions under a 12 h light:dark cycle, lights on at 0700 h. All testing was carried out in the light phase. Food and water were freely provided. All experiments were conducted in accordance with the Animals Scientific Procedures Act, U.K. 1986 and were approved by the University of Bradford ethical review panel.
40 mg of test compound was dissolved in 5 ml of 40% hydroxypropyl β-cyclodextrin (HPBC) solution. The solution was sonicated until completely dissolved. 2 ml of sterile water was added and the pH measured and adjusted with NaOH solution (0.1N) to obtain pH ˜4. Finally, sterile water was added to a final volume of 10 ml. This stock solution was then diluted in 20% HPBC to obtain the final concentrations. 100 mg of PQ10 was dissolved in a 40% HPBC solution and 8 mg of tartaric acid. The solution was sonicated until completely dissolved. 5 ml of sterile water was added and the pH measured and adjusted with NaOH solution (0.1N) to obtain pH ˜4. Finally sterile water was added to a final volume of 10 ml.
Test compound was administered at doses of 0.3 and 1.0 mg/kg via the oral route 30 min prior to testing.
PQ10 was administered at a dose of 1.0 mg/kg via the oral route 30 min prior to testing.
Certain pre-clinical tests allow the observation of relatively subtle cognitive deficits in the rat that resemble cognitive symptoms in subjects with schizophrenia. The cognitive deficits observed are seen in behaviours such as episodic memory, which can be measured by recognition tasks such as the novel object recognition (NOR) paradigm. A recognition memory task allows the comparison between presented stimuli and previously stored information. Ennaceur, A Delacour, J (1988) A new one-trial test for neurobiological studies of memory in rats Behav Brain Res 31: 47-59 described the NOR test in rats which was based on the differential exploration of familiar and new objects. The NOR test is a non-rewarded, ethologically relevant paradigm based on the spontaneous exploratory behaviour of rats that measures episodic memory. Each session consists of two trials. In the first trial, the rats are exposed to two identical objects in an open field. During the second trial, rats are exposed to two dissimilar objects, one familiar object from the first trial and one new object. Object recognition in rats can be measured as the difference in time spent exploring the familiar and the new object. […] The duration of each trial is also important as a preference for the novel object only lasts during the first 1 or 2 minutes, after which time preference diminishes as both objects become familiar and are explored equally.
Rats were randomly assigned to the 8 treatment groups
Rats were allowed to habituate to the empty test box and the behavioural test room environment for 1 h on day 1. Prior to behavioural testing on day 2 rats were given a further 3 min habituation.
Following the 3 min habituation period, the rats were given two 3 min trials (T1 and T2) which were separated by a 1 min inter-trial interval in the home cage during which the objects were changed.
In this trial, the animals were allowed to explore two identical objects (A1 and A2) for 3 min.
In this trial, the animals explored a familiar object (A) from T1 and a novel object (B) for 3 min. The familiar object presented during T2 was a duplicate of the object presented in T1 in order to avoid any olfactory trails.
The object exploration was defined by animals licking, sniffing or touching the object with the forepaws whilst sniffing, but not leaning against, turning around, standing or sitting on the object. […]

[2] = molecular target: T1, Rat recombinant PDE10A (rPDE10A2) (Rattus norvegicus, UniProt Q9QYJ6); experiment: In vitro assay PDE10A (SPA, 3H-cAMP); type: biochemical
T1 construct: inferred from the Ni metal chelate purification; made in house; host or cells: Sf9 insect cells (baculovirus)
T1 sequence (Q9QYJ6 1-794): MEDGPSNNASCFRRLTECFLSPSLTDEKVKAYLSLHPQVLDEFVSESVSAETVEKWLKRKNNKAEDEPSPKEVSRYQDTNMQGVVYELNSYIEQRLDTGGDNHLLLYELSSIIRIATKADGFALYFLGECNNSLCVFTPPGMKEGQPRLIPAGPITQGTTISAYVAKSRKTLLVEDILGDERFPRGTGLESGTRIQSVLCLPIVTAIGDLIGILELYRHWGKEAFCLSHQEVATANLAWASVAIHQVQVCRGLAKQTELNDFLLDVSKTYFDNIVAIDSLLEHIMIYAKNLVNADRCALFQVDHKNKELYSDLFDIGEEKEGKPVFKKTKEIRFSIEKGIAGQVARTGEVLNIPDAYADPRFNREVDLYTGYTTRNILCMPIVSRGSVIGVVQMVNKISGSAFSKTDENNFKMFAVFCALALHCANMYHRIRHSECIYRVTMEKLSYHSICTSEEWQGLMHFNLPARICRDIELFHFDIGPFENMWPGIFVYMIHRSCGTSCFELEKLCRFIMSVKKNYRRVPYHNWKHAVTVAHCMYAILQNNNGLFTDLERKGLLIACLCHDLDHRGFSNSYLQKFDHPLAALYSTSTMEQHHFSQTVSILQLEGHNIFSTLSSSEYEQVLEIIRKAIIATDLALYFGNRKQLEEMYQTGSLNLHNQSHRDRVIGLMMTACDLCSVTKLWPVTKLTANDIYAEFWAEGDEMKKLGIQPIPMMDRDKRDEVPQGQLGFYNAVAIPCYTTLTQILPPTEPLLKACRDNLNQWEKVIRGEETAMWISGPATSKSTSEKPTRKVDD
How it was run: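 Rat PDE10A2 expressed in Sf9 cells and Ni-purified; incubated with 60 nM cAMP plus 0.008 μCi 3H-cAMP in 50 mM Tris pH 7.8, 8.3 mM MgCl2, 1.7 mM EGTA for 60 min at room temperature. Product quantified by scintillation proximity counting; final DMSO 1%.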

Chain of PDE1B1 (Q01064 whole entry, species assumed): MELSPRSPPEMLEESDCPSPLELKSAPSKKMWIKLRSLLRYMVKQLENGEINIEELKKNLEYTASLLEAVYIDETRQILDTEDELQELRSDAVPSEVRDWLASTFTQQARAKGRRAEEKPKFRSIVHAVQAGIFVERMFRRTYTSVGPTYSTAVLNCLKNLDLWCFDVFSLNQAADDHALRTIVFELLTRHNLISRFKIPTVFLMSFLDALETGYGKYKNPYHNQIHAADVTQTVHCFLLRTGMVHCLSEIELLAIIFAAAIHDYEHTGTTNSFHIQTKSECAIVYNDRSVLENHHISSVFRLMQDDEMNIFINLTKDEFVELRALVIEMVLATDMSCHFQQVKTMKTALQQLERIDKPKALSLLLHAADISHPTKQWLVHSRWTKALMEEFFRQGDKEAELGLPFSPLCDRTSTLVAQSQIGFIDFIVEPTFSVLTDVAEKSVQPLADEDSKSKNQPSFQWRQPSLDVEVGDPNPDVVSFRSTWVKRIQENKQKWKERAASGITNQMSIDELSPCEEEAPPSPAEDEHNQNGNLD

Compound: COCCc1ccc(-c2c(C)nc3c(N4CCOCC4)ccnn23)cn1 [compound 1, 3-[6-(2-methoxyethyl)-3-pyridinyl]-2-methyl-8-(4-morpholinyl)-imidazo[1,2-b]pyridazine]
- IC50 (PDE1B1): 5.25 µM
- LMA (no. of lines crossed) ([1]; PCP + 0.3 mg/kg p.o.): 56.5 no. of lines crossed
- LMA (no. of lines crossed) ([1]; PCP + 1 mg/kg p.o.): 56.4 no. of lines crossed
- effects of acute treatment in the NOR task ([1]; acute treatment, oral route 30 min prior to testing, compound 1 0.3-1.0 mg/kg, PQ10 1.0 mg/kg, sub-chronic PCP female rats): selective for the retention phase

Compound: COCCOc1ccc(-c2c(C)nc3c(-c4ccncc4)ccnn23)cn1 [compound 21, 3-[6-(2-methoxyethoxy)-3-pyridinyl]-2-methyl-8-(4-pyridinyl)-imidazo[1,2-b]pyridazine]
- IC50 ([2]; Table 4 in vitro selectivity, read-out: PDE 10A2 (expressed as pIC50) (converted)): 0.102 µM
- IC50 ([2]; pIC50 corresponds to the −log IC50 expressed in mol/L, read-out: PDE10A2 pIC50 (converted)): 0.102 µM
